For data set [1], the target named is T1, Acetylcholinesterase (Homo sapiens, UniProt P22303). The experiment in a line: Inhibition of human erythrocyte AChE at 20 uM using acetylthiocholine iodide as substrate preincubated for 10 mins followed by substrate addition Ellman's method.
In data set [2] the target is T2, Cholinesterase (Equus caballus, UniProt P81908).
Description: Inhibition of equine serum BChE using butyrylthiocholine iodide as substrate preincubated for 10 mins followed by substrate addition by Ellman's method
Data set [3] has as its target T3, Liver carboxylesterase (Sus scrofa, UniProt Q29550).
T3 sequence (Q29550 whole entry): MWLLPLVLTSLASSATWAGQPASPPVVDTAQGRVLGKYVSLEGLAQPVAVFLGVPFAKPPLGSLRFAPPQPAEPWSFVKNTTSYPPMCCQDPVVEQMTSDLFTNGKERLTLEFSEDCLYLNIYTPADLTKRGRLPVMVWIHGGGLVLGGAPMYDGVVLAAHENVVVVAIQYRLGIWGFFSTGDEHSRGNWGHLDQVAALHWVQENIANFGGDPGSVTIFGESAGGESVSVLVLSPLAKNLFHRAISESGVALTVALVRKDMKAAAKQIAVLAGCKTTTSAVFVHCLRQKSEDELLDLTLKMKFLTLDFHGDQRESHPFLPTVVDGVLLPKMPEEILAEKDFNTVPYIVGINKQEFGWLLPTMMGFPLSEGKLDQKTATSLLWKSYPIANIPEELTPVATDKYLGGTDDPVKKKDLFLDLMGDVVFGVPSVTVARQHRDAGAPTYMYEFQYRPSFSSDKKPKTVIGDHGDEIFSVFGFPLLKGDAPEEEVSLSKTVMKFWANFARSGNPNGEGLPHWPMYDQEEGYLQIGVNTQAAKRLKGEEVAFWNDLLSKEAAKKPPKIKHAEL
The experiment in a line: in vitro. Conditions: pig, probe 4-nitrophenol acetate.
Description: Inhibition of pig liver carboxylesterase at 20 uM using 4-nitrophenol acetate as substrate by spectrophotometric analysis

Data set [4] deals with T3, Liver carboxylesterase.
Description: Inhibition of pig liver carboxylesterase using 4-nitrophenol acetate as substrate by spectrophotometric analysis
Data set [5] concerns the target Cholinesterase (Equus caballus) (UniProt P81908). The experiment in a line: Inhibition of equine serum BChE at 20 uM using butyrylthiocholine iodide as substrate preincubated for 10 mins followed by substrate addition by Ellman's method. A general note: DTNB colorimetry detects thiols as they appear.
Data set [6] has as its target T1, Acetylcholinesterase.
Description: Inhibition of human erythrocyte AChE using acetylthiocholine iodide as substrate preincubated for 10 mins followed by substrate addition by Ellman's method
Data set [7] has as its target T2, Cholinesterase. The source holds these as a separate data set.
Description: Competitive inhibition of equine serum BChE using butyrylthiocholine iodide as substrate preincubated for 10 mins followed by substrate addition by Lineweaver-Burk double reciprocal kinetic plot analysis
Data set [8] has as its target Cholinesterase (Equus caballus) (UniProt P81908). The experiment in a line: Non-competitive inhibition of equine serum BChE using butyrylthiocholine iodide as substrate preincubated for 10 mins followed by substrate addition by Lineweaver-Burk double reciprocal kinetic plot analysis.
Data set [9] addresses T1, Acetylcholinesterase. This is another data set of the same source.
Description: Competitive inhibition of human serum AChE using acetylthiocholine iodide as substrate preincubated for 10 mins followed by Lineweaver-Burk double reciprocal kinetic plot analysis
For data set [10], the target named is T1, Acetylcholinesterase. The experiment in a line: Non-competitive inhibition of human […] AChE using acetylthiocholine iodide as substrate preincubated for 10 mins followed by substrate addition by Lineweaver-Burk double reciprocal kinetic plot analysis.

What is called inhibition is the percentage by which the read-out fell short of the control. Broadly, the IC50 is the concentration that gives 50% inhibition. In general, Ki refers to a dissociation constant, usually derived from enzyme kinetics or from competition with a known ligand. The low end stands for a stronger hold on the target, the high end for a looser hold on the target.

Each structure is given as a SMILES string. Active and inactive are the calls of the source. No cut-off for these calls is given here.

T1 sequence (P22303 whole entry): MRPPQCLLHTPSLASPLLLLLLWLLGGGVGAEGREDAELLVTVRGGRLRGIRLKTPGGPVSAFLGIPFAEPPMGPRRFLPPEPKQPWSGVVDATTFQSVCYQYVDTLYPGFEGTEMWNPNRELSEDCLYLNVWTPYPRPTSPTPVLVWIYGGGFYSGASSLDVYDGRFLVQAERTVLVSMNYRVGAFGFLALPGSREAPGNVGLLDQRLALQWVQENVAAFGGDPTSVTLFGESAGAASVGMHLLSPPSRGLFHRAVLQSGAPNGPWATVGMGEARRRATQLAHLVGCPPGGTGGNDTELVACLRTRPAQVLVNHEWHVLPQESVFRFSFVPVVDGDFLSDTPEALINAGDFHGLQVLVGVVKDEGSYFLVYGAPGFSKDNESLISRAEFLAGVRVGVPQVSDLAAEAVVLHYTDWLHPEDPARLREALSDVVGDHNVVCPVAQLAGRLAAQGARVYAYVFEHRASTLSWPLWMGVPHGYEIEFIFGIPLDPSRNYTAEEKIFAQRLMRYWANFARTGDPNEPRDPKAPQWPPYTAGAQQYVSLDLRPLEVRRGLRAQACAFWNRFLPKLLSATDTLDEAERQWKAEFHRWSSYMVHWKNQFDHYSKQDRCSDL
T2 sequence (P81908 whole entry): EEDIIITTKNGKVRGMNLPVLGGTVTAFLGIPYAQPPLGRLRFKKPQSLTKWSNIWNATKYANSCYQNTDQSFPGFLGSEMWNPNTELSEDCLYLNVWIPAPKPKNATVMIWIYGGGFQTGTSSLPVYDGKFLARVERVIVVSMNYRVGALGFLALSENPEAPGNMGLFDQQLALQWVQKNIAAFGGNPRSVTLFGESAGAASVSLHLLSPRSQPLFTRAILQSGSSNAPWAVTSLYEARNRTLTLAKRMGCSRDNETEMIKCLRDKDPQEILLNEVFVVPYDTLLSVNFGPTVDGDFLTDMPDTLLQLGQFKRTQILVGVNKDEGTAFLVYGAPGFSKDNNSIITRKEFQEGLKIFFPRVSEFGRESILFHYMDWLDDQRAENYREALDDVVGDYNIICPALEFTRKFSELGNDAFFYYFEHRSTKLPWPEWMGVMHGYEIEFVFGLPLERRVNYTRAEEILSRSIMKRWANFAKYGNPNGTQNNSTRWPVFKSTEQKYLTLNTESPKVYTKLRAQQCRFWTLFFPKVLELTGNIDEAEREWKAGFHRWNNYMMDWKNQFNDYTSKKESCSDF
Chain of Cholinesterase (Equus caballus) (P81908 whole entry): as above

As for `CC(=O)Nc1ccc(C2c3ccccc3N(C)c3ccccc32)cc1`, at Acetylcholinesterase [1], the inhibition result was “inactive”. In addition, the IC50 on Cholinesterase [2] and on Liver carboxylesterase [4] was > 20 µM in each case. This compound returned an inhibition at 20 µM at Liver carboxylesterase [3] of 7.2%. The inhibition in data set [5] was 10.8%.
Regarding `CN1c2ccccc2C(n2cncn2)c2ccccc21`, the IC50 on Acetylcholinesterase [6] is 18.8 µM; against Cholinesterase [2], 0.81 µM; on Liver carboxylesterase [4], > 20 µM. In addition, the Ki on Cholinesterase [7] came out at 0.16 µM; on Acetylcholinesterase [9] it was 3.34 µM. This compound also had an inhibition at 20 µM against Liver carboxylesterase [3] of 5.4%. The same compound gave an alphaKi in data set [8] of 0.72 µM.
In the case of `C[n+]1c2ccccc2c(-c2c(O)ccc3ccccc23)c2ccccc21`, the inhibition against Acetylcholinesterase [1] is 7.3%. The IC50 on Acetylcholinesterase [6] is > 20 µM; against Cholinesterase [2], 50.8 µM; against Liver carboxylesterase [4] it was > 20 µM. On Liver carboxylesterase [3], 20 µM produced 8.9% inhibition.
For `CN1c2ccccc2C(c2ccc(NC(=O)C(F)(F)F)cc2)c2ccccc21`, the inhibition entry at Acetylcholinesterase [1] was “inactive”. The 50% inhibitory concentration (IC50) at Cholinesterase [2] is > 20 µM. Besides, the inhibition in data set [5] worked out at 7.1%.
As for `CN1c2ccccc2C(c2ccc(F)cc2)c2ccccc21`, at Acetylcholinesterase [1], the inhibition entry was “inactive”. In addition, on Cholinesterase [2], the IC50 was > 20 µM. In data set [5], the inhibition turned out to be 11.1%.
As for `CN1c2ccccc2C(N2CCSCC2)c2ccccc21`, the IC50 against Acetylcholinesterase [6] was 11.8 µM; at Cholinesterase [2] it was 0.84 µM; against Liver carboxylesterase [4], > 20 µM. The Ki at Cholinesterase [7] stood at 0.35 µM; on Acetylcholinesterase [9], 3.75 µM. The compound further registered an inhibition at 20 µM on Liver carboxylesterase [3] of 5%. In data set [8], this compound showed an alphaKi of 1.31 µM.
As for `O=[N+]([O-])c1ccc(OP(=O)(O)Oc2ccc([N+](=O)[O-])cc2)cc1`, the inhibition result (on Acetylcholinesterase [1]; in [5]) was “inactive” in each case.
`C[n+]1c2ccccc2c(-c2ccc(F)cc2)c2ccccc21`: the IC50 against Acetylcholinesterase [6] was 32.3 µM; on Cholinesterase [2] it was > 20 µM; against Liver carboxylesterase [4] it was > 20 µM. The inhibition at 20 µM against Liver carboxylesterase [3] turned out to be 5.9%. Further, the inhibition in data set [5] was found to be 8.2%.
For `Cc1ccc(C2c3ccccc3N(C)c3ccccc32)cc1`, the inhibition at Acetylcholinesterase [1] was determined as 5.1%; in data set [5], 10.6%. The IC50 on Acetylcholinesterase [6] and at Cholinesterase [2] was > 20 µM in each case.
On to `Cc1cc(-c2c3ccccc3[n+](C)c3ccccc23)cc(C)c1C`, for which the IC50 at Acetylcholinesterase [6] was 60.1 µM; on Cholinesterase [2], > 20 µM. The same compound showed an inhibition in [5] of 14.2%.
Consider `CN1c2ccccc2C(c2cc(C(C)(C)C)cc(C(C)(C)C)c2O)c2ccccc21`, for which the inhibition entry at Acetylcholinesterase [1] was “inactive”. The IC50 against Cholinesterase [2] was > 20 µM. The same compound returned an inhibition in data set [5] of 13.4%.
Turning to `Cc1cc(-c2c3ccccc3[n+](C)c3ccccc23)cc(C)c1O`, the figures for the IC50 on Acetylcholinesterase [6] and against Cholinesterase [2] were 49.8 µM and 61.8 µM, respectively.
Regarding `C[n+]1c2ccccc2c(-c2ccccc2)c2ccccc21`, the IC50 against Acetylcholinesterase [6] was 61.3 µM; at Cholinesterase [2], 51.9 µM; against Liver carboxylesterase [4] it was > 20 µM. The inhibition at 20 µM against Liver carboxylesterase [3] is 22.6%.
On to `CN1c2ccccc2C(c2ccccc2)c2ccccc21`, for which the inhibition result on Acetylcholinesterase [1] is “inactive”. The compound further displayed an IC50 against Cholinesterase [2] of 62.1 µM.
`CN1c2ccccc2C(c2ccc(N)cc2)c2ccccc21`: at Acetylcholinesterase [1], the inhibition result is “inactive”. Further, the IC50 at Cholinesterase [2] worked out at 66.5 µM.
On to `C[n+]1c2ccccc2c(-c2ccc(N)cc2)c2ccccc21`, for which the figures for the IC50 against Acetylcholinesterase [6], against Cholinesterase [2] and on Liver carboxylesterase [4] were 7.62 µM, 39.1 µM and > 20 µM, respectively. Also, the values for the Ki at Cholinesterase [7] and at Acetylcholinesterase [9] were 19 µM and 2.66 µM, respectively. 20 µM produced 18.6% inhibition against Liver carboxylesterase [3]. Besides, the alphaKi in data set [8] came out at 55.4 µM; at Acetylcholinesterase [10], 8.95 µM.
For the compound `CN1c2ccccc2C(N2CCOCC2)c2ccccc21`, the IC50 was 12.3 µM against Acetylcholinesterase [6], 0.46 µM on Cholinesterase [2] and > 20 µM against Liver carboxylesterase [4]. The Ki is 0.41 µM at Cholinesterase [7] and 4.01 µM on Acetylcholinesterase [9]. On Liver carboxylesterase [3], this compound had an inhibition at 20 µM of 16.4%. For the same compound, the alphaKi in [8] was 1.17 µM; on Acetylcholinesterase [10], 19.6 µM.
Consider `C[n+]1c2ccccc2c(-c2cc(C(C)(C)C)cc(C(C)(C)C)c2O)c2ccccc21`, for which, at Acetylcholinesterase [1], the inhibition worked out at 16.7%. The IC50 against Acetylcholinesterase [6] was > 20 µM; against Cholinesterase [2], 2.74 µM; on Liver carboxylesterase [4], > 20 µM. Also, the Ki at Cholinesterase [7] came to 1.46 µM. On Liver carboxylesterase [3], this compound had an inhibition at 20 µM of 31.2%. In data set [8], this compound had an alphaKi of 4.75 µM.
Regarding `CN1c2ccccc2C(c2cccs2)c2ccccc21`, on Acetylcholinesterase [1], the inhibition entry is “inactive”. Further, the IC50 against Cholinesterase [2] and at Liver carboxylesterase [4] was > 20 µM throughout. The compound also showed an inhibition at 20 µM against Liver carboxylesterase [3] of 11.1%. The compound further returned an inhibition in data set [5] of 12.3%.
As to `CN1c2ccccc2C(c2cc(C(C)(C)C)c(O)c(C(C)(C)C)c2)c2ccccc21`, the inhibition entry at Acetylcholinesterase [1] is “inactive”. Moreover, the IC50 against Cholinesterase [2] and against Liver carboxylesterase [4] was > 20 µM throughout. This compound also gave an inhibition at 20 µM against Liver carboxylesterase [3] of 23.6%. The inhibition in [5] stood at 10.4%.
Regarding `C[n+]1c2ccccc2c(-c2ccc(NC(=O)C(F)(F)F)cc2)c2ccccc21`, the IC50 on Acetylcholinesterase [6] is 36.5 µM; against Cholinesterase [2], > 20 µM; at Liver carboxylesterase [4], > 20 µM. Further, at Liver carboxylesterase [3], the inhibition at 20 µM was 7.2%. Moreover, the inhibition in data set [5] was 7.7%.
Consider `Cc1ccc(-c2c3ccccc3[n+](C)c3ccccc23)cc1`, for which the values for the IC50 against Acetylcholinesterase [6], at Cholinesterase [2] and against Liver carboxylesterase [4] were 41.5 µM, 40.7 µM and > 20 µM, respectively. This compound registered an inhibition at 20 µM at Liver carboxylesterase [3] of 16.3%.
Regarding `C[n+]1c2ccccc2c(N)c2ccccc21`, the figures for the IC50 against Acetylcholinesterase [6] and on Cholinesterase [2] were 39.5 µM and 4.83 µM, respectively.
On to `C[n+]1c2ccccc2c(-c2cccs2)c2ccccc21`, for which the IC50 against Acetylcholinesterase [6] is 40.9 µM; against Cholinesterase [2], 58.3 µM; against Liver carboxylesterase [4], > 20 µM. In addition, on Liver carboxylesterase [3], at 20 µM the inhibition was 6.1%.
On to `CC(=O)Nc1ccc(-c2c3ccccc3[n+](C)c3ccccc23)cc1`, for which the IC50 against Acetylcholinesterase [6] came to 54.3 µM; against Cholinesterase [2], 35.1 µM.
As to `CN1c2ccccc2C(n2cnc([N+](=O)[O-])n2)c2ccccc21`, the IC50 is 16.7 µM against Acetylcholinesterase [6], 1.17 µM at Cholinesterase [2] and > 20 µM against Liver carboxylesterase [4]. For the same compound, the inhibition at 20 µM at Liver carboxylesterase [3] is 10.6%.
Taken in the same sequence, the figures for `COc1ccc(-c2c3ccccc3[n+](C)c3ccccc23)cc1` were 13.7 µM, 58.5 µM, > 20 µM and 7.8%.
For `COc1ccc(C2c3ccccc3N(C)c3ccccc32)cc1`, the inhibition against Acetylcholinesterase [1] turned out to be 9.3%; in data set [5], 11.6%. Also, the IC50 at Acetylcholinesterase [6] and at Cholinesterase [2] was > 20 µM in each case.
In the case of `CN1c2ccccc2C(n2nnc3ccccc32)c2ccccc21`, the IC50 against Acetylcholinesterase [6] is 12.4 µM; on Cholinesterase [2], 1.08 µM; on Liver carboxylesterase [4] it was > 20 µM. For the same compound, the values for the Ki on Cholinesterase [7] and at Acetylcholinesterase [9] were 0.49 µM and 6.43 µM, respectively. The same compound came in with an inhibition at 20 µM against Liver carboxylesterase [3] of 15.3%. Besides, the values for the alphaKi (in [8]; at Acetylcholinesterase [10]) were 2.13 µM and 17.9 µM, respectively.
The compound `CCCCNc1c2ccccc2[n+](C)c2ccccc12` showed an inhibition at Acetylcholinesterase [1] of 16.8%. Further, the IC50 against Acetylcholinesterase [6] was > 20 µM; against Cholinesterase [2] it was 15.7 µM.
Turning to `CCN(CC)c1ccc(-c2c3ccccc3[n+](C)c3ccccc23)cc1`, the 50% inhibitory concentration (IC50) on Acetylcholinesterase [6] was 25.2 µM; against Cholinesterase [2], 3.35 µM. Moreover, the Ki on Cholinesterase [7] worked out at 0.94 µM; on Acetylcholinesterase [9], 13.2 µM. For the same compound, the alphaKi in data set [8] worked out at 4.22 µM; on Acetylcholinesterase [10], 28 µM.
On Acetylcholinesterase [1], `CN1c2ccccc2C(n2c3ccccc3c3ccccc32)c2ccccc21` returned an inhibition of 5.6%. The IC50 is > 20 µM at Acetylcholinesterase [6] and 13 µM against Cholinesterase [2].

Values taken from ChEMBL document CHEMBL4043268 (Bioorg Med Chem, 2017).
